≈ marks a conversion by molar mass, not a printed value. Where two headings read alike, the source gives them in different places.
Columns and labels:
MRSA (13B262) = test: MIC, broth microdilution (CLSI), clinical isolate; format: cell-based; conditions: Staphylococcus aureus
Outline: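 Broth microdilution per CLSI in cation-adjusted Mueller Hinton broth, Haemophilus Test Medium, or CAMHB with 3%–5% lysed horse blood as suited to each organism. Compounds from 2.048 mg/mL stocks were serially diluted two-fold; inoculum 5 × 10^5 CFU/mL, read after 16–24 h at 35 °C; triplicate determinations.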

VRE (13B330) = test: MIC, broth microdilution (CLSI), clinical isolate; format: cell-based, vancomycin-resistant enterococcus; conditions: Enterococcus
Text: (§1) 6 standard strains and 3 clinical isolates were used to the preliminary evaluation of in vitro antibacterial activities of oxazolidinone-fluoroquinolone hybrids. For the further evaluation of hybrids OBP-4 and OBP-5, 263 clinical isolates including S. aureus (46), S. haemolyticus(32), S. epidermidis (10), E. faecalis (72), E. faecium (47), S. pneumoniae (13), H. parasuis (34), S. suis (9), and 8 resistant strains including MRSA, MRSE, CIP-resistant S. aureus and S. haemolyticus, VAN and quinolone-resistant S. pneumoniae, LZD-resistant E. faecalis, LZD/VAN and quinolone-resistant E. faecium were collected and tested.
(§2) Susceptibility testing of oxazolidinone-fluoroquinolone hybrids against various bacteria was performed by the broth microdilution method as outlined by the Clinical and Laboratory Standards Institute (CLSI). Three types of media, including cation-adjusted Mueller Hinton broth, Haemophilus Test Medium and cation-adjusted Mueller Hinton broth that contained 3%–5% lysed horse blood, were used to culture the corresponding bacteria. All compounds including comparator drugs were dissolved in an appropriate solvent at a concentration of 2.048 mg/mL and then serially diluted two-fold to provide the required concentrations. A final inoculum of 5 × 10^5 CFU/mL was used and plates were read after incubation for 16–24 h at 35 °C. […] Standard quality control strains (ATCC) were included throughout. Each determination was repeated in triplicate.

[1] = test system: S. haemolyticus (32) clinical isolates; test: Susceptibility of clinical isolates (MIC); format: cell-based, Staphylococcus haemolyticus; conditions: for MIC50 / MIC90 / MIC: Staphylococcus haemolyticus, S. haemolyticus, 32 clinical isolates; for MIC50: read-out: MIC50; for MIC90: read-out: MIC90; for MIC: read-out: MIC Range; for Cumulative % of strains inhibited at MIC / No. of strains inhibited at MIC: S. haemolyticus (32)
Protocol: as §2, with “All compounds including comparator drugs were dissolved in an appropriate solvent at a concentration of 2.048 mg/mL and then serially diluted two-fold to provide the required concentrations.” left out

[2] = test system: CIP-resistant S. haemolyticus; test: MIC against drug-resistant strain; format: cell-based; conditions: Staphylococcus haemolyticus; S. haemolyticus, CIP-resistant; read-out: MIC
Protocol: (§3) 6 standard strains and 3 clinical isolates were used to the preliminary evaluation of in vitro antibacterial activities of oxazolidinone-fluoroquinolone hybrids.
as §2, with “All compounds including comparator drugs were dissolved in an appropriate solvent at a concentration of 2.048 mg/mL and then serially diluted two-fold to provide the required concentrations.” left out

[3] = test system: LZD and quinolone-resistant E. faecium; test: MIC against drug-resistant strain; format: cell-based; conditions: Enterococcus faecium; E. faecium, LZD and quinolone-resistant; read-out: MIC
Protocol: as §3
as §2, with “All compounds including comparator drugs were dissolved in an appropriate solvent at a concentration of 2.048 mg/mL and then serially diluted two-fold to provide the required concentrations.” left out

[4] = test system: VAN and quinolone-resistant E. faecium; test: MIC against drug-resistant strain; format: cell-based; conditions: Enterococcus faecium; E. faecium, VAN and quinolone-resistant; read-out: MIC
Protocol: as §3
as §2, with “All compounds including comparator drugs were dissolved in an appropriate solvent at a concentration of 2.048 mg/mL and then serially diluted two-fold to provide the required concentrations.” left out

[5] = test system: VAN and quinolone-resistant S. pneumoniae; test: MIC against drug-resistant strain; format: cell-based; conditions: Streptococcus pneumoniae; S. pneumoniae, VAN and quinolone-resistant; read-out: MIC
Protocol: as §3
as §2, with “All compounds including comparator drugs were dissolved in an appropriate solvent at a concentration of 2.048 mg/mL and then serially diluted two-fold to provide the required concentrations.” left out

CIP-resistant S. aureus = test: MIC against drug-resistant strain; format: cell-based; conditions: Staphylococcus aureus; S. aureus, CIP-resistant; read-out: MIC
Protocol: as §3
as §2, with “All compounds including comparator drugs were dissolved in an appropriate solvent at a concentration of 2.048 mg/mL and then serially diluted two-fold to provide the required concentrations.” left out

MRSA = test: MIC against drug-resistant strain; format: cell-based; conditions: Staphylococcus aureus, read-out: MIC
Protocol: as §3
as §2, with “All compounds including comparator drugs were dissolved in an appropriate solvent at a concentration of 2.048 mg/mL and then serially diluted two-fold to provide the required concentrations.” left out

E. coli (ATCC25922) = test: MIC, broth microdilution (CLSI), standard strain; format: cell-based; conditions: Escherichia coli
Text: as §1, §2

E. faecalis (ATCC29212) = test: MIC, broth microdilution (CLSI), standard strain; format: cell-based; conditions: Enterococcus faecalis; E. faecalis (ATCC29212); read-out: MIC
Text: as §1, §2

[6] = test system: P. Aeruginosa (ATCC27853); test: MIC, broth microdilution (CLSI), standard strain; format: cell-based; conditions: Pseudomonas aeruginosa
Text: as §1, §2

[7] = test system: S. pneumoniae (ATCC49619); test: MIC, broth microdilution (CLSI), standard strain; format: cell-based; conditions: Streptococcus pneumoniae
Text: as §1, §2

[8] = test system: H. influenzae (ATCC49247); test: MIC, broth microdilution (CLSI), standard strain; format: cell-based; conditions: Haemophilus influenzae
Text: as §1, §2

S. aureus (ATCC29213) = test: MIC, broth microdilution (CLSI), standard strain; format: cell-based; conditions: Staphylococcus aureus
Text: as §1, §2

[9] = test system: other resistant organisms in the test; test: MIC summary, resistant organisms other than MRSA and MRSE; format: cell-based; conditions: resistant strains other than MRSA and MRSE; read-out: MICs values against other resistant organisms
Text: as §1
(§4) Susceptibility testing of oxazolidinone-fluoroquinolone hybrids against various bacteria was performed by the broth microdilution method as outlined by the Clinical and Laboratory Standards Institute (CLSI). Three types of media, including cation-adjusted Mueller Hinton broth, Haemophilus Test Medium and cation-adjusted Mueller Hinton broth that contained 3%–5% lysed horse blood, were used to culture the corresponding bacteria. All compounds including comparator drugs were dissolved in an appropriate solvent at a concentration of 2.048 mg/mL and then serially diluted two-fold to provide the required concentrations. A final inoculum of 5 × 10^5 CFU/mL was used and plates were read after incubation for 16–24 h at 35 °C. […]

Gram-positive bacteria = test: MIC summary, Gram-positive bacteria of the preliminary panel; format: cell-based
Text: as §1, §4

E. coli DNA gyrase = molecular target: T1, E. coli DNA gyrase (Escherichia coli, UniProt P0AES4+P0AES6); test: DNA gyrase supercoiling assay; format: biochemical; conditions: supercoiling of relaxed pBR322, 37 °C, 30 min
T1 construct: purchased Inspiralis Co., Ltd; host or cells: E. coli
Protocol: The E. coli DNA Gyrase Supercoiling Assay Kit (Inspiralis Co., Ltd.) was used to investigate the inhibition activities of hybrids OBP-4 and OBP-5 against DNA gyrase. DNA gyrase is prepared from E. coli. One unit of DNA gyrase can convert 0.5 μg of relaxed pBR322 to the supercoiled forms in 30 min. […] The reaction was terminated by adding 30 μL of STEB and 30 μL of chloroform/isoamyl alcohol (v:v, 24:1), and then the products were resolved by gel electrophoresis on 1% (w/v) agarose gel at 80 V for 2 h in the absence of ethidium bromide. The gels were stained with ethidium bromide (1 μg/mL in distilled water) for 15 min, and destained (5–10 min) in distilled water. DNA bands were visualized with UV light in Bio-Rad® Chemidoc xrs and analyzed by using Quantity One software (Version 4.6, Bio-Rad).

[10] = S. haemolyticus clinical isolates, CLSI criteria
[11] = E. coli (ATCC25922), read-out: MIC
[12] = P. Aeruginosa (ATCC27853), read-out: MIC

T1 sequence (P0AES4 whole entry, one chain of several): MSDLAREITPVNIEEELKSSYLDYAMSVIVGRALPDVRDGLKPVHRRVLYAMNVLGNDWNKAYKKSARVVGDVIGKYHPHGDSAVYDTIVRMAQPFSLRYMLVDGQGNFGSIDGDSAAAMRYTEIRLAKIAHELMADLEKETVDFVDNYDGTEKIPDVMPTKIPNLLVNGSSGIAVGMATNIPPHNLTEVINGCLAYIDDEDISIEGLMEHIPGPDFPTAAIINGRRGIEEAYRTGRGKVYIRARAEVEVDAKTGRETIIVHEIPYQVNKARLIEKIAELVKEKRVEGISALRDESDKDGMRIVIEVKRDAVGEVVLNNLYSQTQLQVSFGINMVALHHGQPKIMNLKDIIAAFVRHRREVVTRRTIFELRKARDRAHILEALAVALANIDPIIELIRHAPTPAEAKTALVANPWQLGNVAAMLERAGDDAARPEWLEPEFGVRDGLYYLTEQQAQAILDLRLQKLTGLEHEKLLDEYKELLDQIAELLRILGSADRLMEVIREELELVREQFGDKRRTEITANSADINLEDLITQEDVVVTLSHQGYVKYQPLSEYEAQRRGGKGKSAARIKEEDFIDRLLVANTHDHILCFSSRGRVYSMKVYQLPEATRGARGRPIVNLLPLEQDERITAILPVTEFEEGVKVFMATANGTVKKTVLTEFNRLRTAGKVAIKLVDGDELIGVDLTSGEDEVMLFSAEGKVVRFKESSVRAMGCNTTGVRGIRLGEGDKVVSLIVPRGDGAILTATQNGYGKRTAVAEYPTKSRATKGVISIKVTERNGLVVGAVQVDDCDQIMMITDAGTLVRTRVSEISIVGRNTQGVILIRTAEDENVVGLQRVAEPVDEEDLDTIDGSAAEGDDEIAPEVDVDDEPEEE

With `CC(=O)NC[C@H]1CN(c2ccc(N3CCOCC3)c(F)c2)C(=O)O1` [LZD, linezolid, reference compound] the MIC (MRSA (13B262)) was 4 µg/mL (≈ 11.9 µM), the MIC (VRE (13B330)) was 2 µg/mL (≈ 5.93 µM) and the “CLSI %R (resistant)” value [1, 10] was 3.8%. The “CLSI %S (susceptible)” value [1, 10] was 96.2%, the MIC50 [1] was 0.5 µg/mL (≈ 1.48 µM) and the MIC90 [1] was 2 µg/mL (≈ 5.93 µM). For the same molecule, the MIC [1] was 0.125 to 8 µg/mL (≈ 0.371 to 23.7 µM), the MIC [2] was 8 µg/mL (≈ 23.7 µM) and the MIC [3] was 16 µg/mL (≈ 47.4 µM). For the same molecule, the MIC [4] was 2 µg/mL (≈ 5.93 µM), the MIC [5] was 0.5 µg/mL (≈ 1.48 µM) and the MIC (CIP-resistant S. aureus) was 2 µg/mL (≈ 5.93 µM). For the same molecule, the MIC (MRSA) was 4 µg/mL (≈ 11.9 µM), the MIC (E. coli (ATCC25922); ATCC25922) was 128 µg/mL (≈ 379 µM) and the MIC (E. faecalis (ATCC29212)) was 4 µg/mL (≈ 11.9 µM). It also gave an MIC ([6]; ATCC27853) of 128 µg/mL (≈ 379 µM), an MIC [7] of 1 µg/mL (≈ 2.96 µM) and an MIC [8] of 8 µg/mL (≈ 23.7 µM). The MIC (S. aureus (ATCC29213)) was 4 µg/mL (≈ 11.9 µM).
For `C[C@H]1CCc2c(N3CCC(O)(COc4ccc(N5C[C@H](CO)OC5=O)cc4F)CC3)c(F)cc3c(=O)c(C(=O)O)cn1c23` [OBP-4], the MIC (MRSA (13B262)) was 0.5 µg/mL (≈ 0.834 µM), the MIC (VRE (13B330)) was 0.25 µg/mL (≈ 0.417 µM) and the “Cumulative % of strains inhibited at MIC” value ([1]; MIC 0.125 µg/mL) was 93.8%. The “No. of strains inhibited at MIC” value ([1]; MIC 0.125 µg/mL) was 16, the “Cumulative % of strains inhibited at MIC” value ([1]; MIC 0.5 µg/mL) was 100.0% and the “No. of strains inhibited at MIC” value ([1]; MIC 0.5 µg/mL) was 2. For the same molecule, the “Cumulative % of strains inhibited at MIC” value ([1]; MIC ≤[…]) was 43.8%, the “No. of strains inhibited at MIC” value ([1]; MIC ≤[…]) was 14 and the MIC50 [1] was 0.125 µg/mL (≈ 0.208 µM). For the same molecule, the MIC90 [1] was 0.125 µg/mL (≈ 0.208 µM), the MIC [1] was 0.0625 to 0.5 µg/mL (≈ 0.104 to 0.834 µM) and the MIC [2] was 0.5 µg/mL (≈ 0.834 µM). For the same molecule, the MIC [3] was 0.5 µg/mL (≈ 0.834 µM), the MIC [4] was 0.5 µg/mL (≈ 0.834 µM) and the MIC [5] was 0.25 µg/mL (≈ 0.417 µM). The MIC (CIP-resistant S. aureus) was 0.125 µg/mL (≈ 0.208 µM), the MIC (MRSA) was 0.25 µg/mL (≈ 0.417 µM) and the MIC [9] was 0.0625 to 1 µg/mL (≈ 0.104 to 1.67 µM). For the same molecule, the MIC (Gram-positive bacteria; read-out: MICs against Gram-positive bacteria) was no more than 0.5 µg/mL, the MIC (E. coli (ATCC25922); [11]) was 4 µg/mL (≈ 6.67 µM) and the MIC (E. faecalis (ATCC29212)) was 0.25 µg/mL (≈ 0.417 µM). It also gave an MIC [6, 12] of 64 µg/mL (≈ 107 µM), an MIC [7] of 0.031 µg/mL (≈ 0.0517 µM) and an MIC [8] of 0.25 µg/mL (≈ 0.417 µM). For the same molecule, the MIC (S. aureus (ATCC29213)) was 0.016 µg/mL (≈ 0.0267 µM) and the IC50 (E. coli DNA gyrase) was 1 to 5 µM.
With `CC1Sc2c(C(=O)O)c(=O)c3cc(F)c(N4CCC(O)(COc5ccc(N6C[C@H](CO)OC6=O)cc5F)CC4)cc3n21` (some centres unmarked) [OBP-5] the MIC (MRSA (13B262)) was 0.5 µg/mL (≈ 0.828 µM), the MIC (VRE (13B330)) was 0.5 µg/mL (≈ 0.828 µM) and the “Cumulative % of strains inhibited at MIC” value ([1]; MIC 0.125 µg/mL) was 100.0%. For the same molecule, the “No. of strains inhibited at MIC” value ([1]; MIC 0.125 µg/mL) was 2, the “No. of strains inhibited at MIC” value ([1]; MIC ≤[…]) was 30 and the MIC50 [1] was no more than 0.0625 µg/mL. The MIC90 [1] was no more than 0.0625 µg/mL, the MIC [1] was 0.0625 to 0.125 µg/mL (≈ 0.104 to 0.207 µM) and the MIC [2] was no more than 0.0625 µg/mL. It also gave an MIC [3] of 0.125 µg/mL (≈ 0.207 µM), an MIC [4] of 0.25 µg/mL (≈ 0.414 µM) and an MIC [5] of no more than 0.0625 µg/mL. The MIC (CIP-resistant S. aureus) was no more than 0.0625 µg/mL, the MIC (MRSA) was 0.125 µg/mL (≈ 0.207 µM) and the MIC [9] was 0.0625 to 1 µg/mL (≈ 0.104 to 1.66 µM). The “antibacterial efficacy against Gram-positive bacteria, times stronger than LZD” value (Gram-positive bacteria; relative to LZD) was 4–16 times, the MIC (E. coli (ATCC25922); [11]) was 4 µg/mL (≈ 6.63 µM) and the MIC (E. faecalis (ATCC29212)) was 1 µg/mL (≈ 1.66 µM). For the same molecule, the MIC [6, 12] was 64 µg/mL (≈ 106 µM), the MIC [7] was 0.062 µg/mL (≈ 0.103 µM) and the MIC [8] was 0.25 µg/mL (≈ 0.414 µM). It also gave an MIC (S. aureus (ATCC29213)) of 0.25 µg/mL (≈ 0.414 µM) and an IC50 (E. coli DNA gyrase) of 20 µM.

From paper PMC6514978, “Synthesis, Antibacterial Activities, Mode of Action and Acute Toxicity Studies of New Oxazolidinone-Fluoroquinolone Hybrids” (Molecules, 2019)
